Test results: article PMC5609566, “Elucidation of antimicrobial activity and mechanism of action by N-substituted carbazole derivatives” (Bioorganic & Medicinal Chemistry Letters, 2017)
Converted amounts (≈) assume the structure as drawn.

Experiments:
S. cerevisiae H^+-ATPase = biological target: T1, S. cerevisiae H^+-ATPase (Saccharomyces cerevisiae, UniProt P05030); experiment: Colorimetric ATPase assay (ATP hydrolysis), S. cerevisiae plasma membranes; format: biochemical; details: initial hit compounds, Table 1
T1 construct: transformed with the full-length cDNA of the S. cerevisiae plasma membrane H^+-ATPase isoform PMA1; made in house; host or cells: S. cerevisiae RS72
From the text: To investigate the H^+-ATPase inhibitory effect of the compounds we isolated plasma membranes containing H^+-ATPase from S. cerevisiae and C. albicans cells.[15] Plasma membranes isolated from pig kidney as well as endoplasmic reticulum membranes from rabbit hind leg muscle were used to counter-screen compounds for activity against mammalian Na^+,K^+-ATPase and Ca^2+-ATPase, respectively. Prior to their use, fungal plasma membrane batches were validated by determining the maximum ATP hydrolysis activity, the pH optimum of the ATPase activity, and the sensitivity to inhibition by orthovanadate. ATPase activity was determined by a colorimetric assay that measures the amount of inorganic phosphate liberated over time, as described in Kjellerup et al., 2017.[15] Table 2, Table 3, Table 4 list the IC50 values obtained by measuring the concentration dependence of the ATPase activity for the fifteen carbazole compounds with each of the four membrane preparations.
Pma1-containing plasma membranes were prepared from S. cerevisiae RS72 yeast cells that had been transformed with the full-length cDNA of the S. cerevisiae plasma membrane H^+-ATPase isoform PMA1 under control of the PMA1 promoter, using the same procedure as described in Kongstad et al., 2014^1. For the preparation of C. albicans membranes, a 100 ml overnight culture grown in YPD (10 g/L yeast extract (BD, Sparks, MD), 20 g/L Bacto peptone (BD), 20 g/L D-(+)-glucose) was transferred to 1 L YPD and grown for a further 7 h at RT with agitation (150 rpm), followed by cell harvesting and subsequent membrane preparation using the same procedure as described in Kongstad et al., 2014^1. […] Rabbit sarcoplasmic reticulum membranes containing Sarco/Endoplasmic Reticulum Ca^2+ ATPase (SERCA) were kindly provided by Dr. Claus E. Olesen and Dr. Jesper V. Møller, Aarhus University and prepared as described in Andersen et al., 1985^2. Pig kidney Na^+,K^+-ATPase was kindly provided by Dr. Natalya Fedosova, Aarhus University and prepared as described in Klodos et al., 2002^3.
The compound libraries were purchased from Enamine Ltd, Ukraine and Chembridge Corp, USA. ATPase activity was determined by measuring the amount of liberated phosphate from ATP hydrolysis. […] Reactions were initiated by the addition of Na-ATP to a final concentration of 2.5 mM (Pma1 and Na^+,K^+-ATPase) or 5 mM (SERCA), followed by 30 minutes incubation at 30 °C. The amount of liberated phosphate was determined colorimetrically after addition of STOP solution (mixture of L-ascorbic acid, ammonium heptamolybdate tetrahydrate, and HCl to give final concentrations of 65 mM, 2.2 mM, and 189 mM, respectively) with 5 minutes incubation at room temperature (RT) followed by addition of arsenite solution (mixture of NaAsO2, sodium citrate dihydrate, and acetic acid to give final concentrations of 3.1 mM, 28 mM, and 141 mM, respectively). Absorption was measured at 860 nm after an additional 30 minutes incubation at RT.

C. albicans (ATCC 90028) = experiment: Fungal growth inhibition, library hits; format: cell-based
Method: (§1) Compound hits from the library screening were evaluated against baker yeast S. cerevisiae and C. albicans (ATCC 90028). The minimum inhibitory concentration (MIC) was defined as the lowest concentration inhibiting visual growth of the microorganism and this was determined in triplicate. Standard errors were typically less than 5%. MICs for synthesized compounds were determined on the following fungal isolates: Saccharomyces cerevisiae (ATCC 9763), Candida albicans (SC5314), Candida krusei (ATCC 6258), Candida glabrata (ATCC 90030), Aspergillus flavus (ATCC MYA-1005) and Aspergillus fumigatus (ATCC 13073), which were purchased from American Type Culture Collection, and C. glabrata strain Cg003, which was kindly provided by Julius Subik, Comenius University in Bratislava, Slovak Republic. Cg003 is a clinical isolate, characterized to be resistant to fluconazole and itraconazole due to overexpression of the multidrug resistance efflux pumps Cdr1p and Cdr2p^5. The fungal growth assay was performed as described in Kjellerup et al., 2017^6.

S. cerevisiae [1] = experiment: Fungal growth inhibition, library hits; format: cell-based; details: Saccharomyces cerevisiae, baker yeast
Method: as §1

C. albicans cells = experiment: Intracellular ATP determination; format: cell-based; details: compound at 20 µM, 30 minutes, mean ± SEM n = 5
From the text: (§2) It was subsequently evaluated whether or not the carbazoles were able to prevent extracellular acidification of the surrounding media by blocking the pumping activity of the H^+-ATPase within fungal cells.[15] […] The H^+-ATPase requires ATP to transport protons out of fungal cells. Consequently, a decrease in intracellular ATP (iATP) levels will indirectly affect H^+-ATPase activity. […] In all cases, iATP levels were […] in C. albicans cells exposed to carbazoles compared to the untreated control. […] This implies that the carbazoles need to pass the fungal membrane to inhibit the H^+-ATPase and 7, 18 and 19 may have reduced membrane permeability.
C. albicans cells were transferred to 3 ml of YPD media and grown overnight at 30 °C and 150 rpm. The cells were pelleted at 2000 × g for 2 min. and washed in PBS (Sigma-Aldrich, catalog number 8537) twice before re-suspension to an OD600 of 0.1. Cell suspension (98 µL) and 2 µl compound in DMSO were incubated for 30 minutes at RT. Forty microliters of this suspension was then transferred to a black 96-well plate containing 40 µl BacTiterGlo reagent (Promega, Madison, WI) and the plate was incubated for 15 minutes in the dark at room temperature. Luminescence was read on a SpectraMax X5 (Molecular Devices, Sunnyvale, CA) plate reader with 10 s shake and 0.5 s integration time. A standard curve containing 10, 100 and 1000 nM ATP was prepared for every experiment.

C. albicans = experiment: Extracellular acidification assay; format: cell-based; details: Candida albicans, mean ± SEM n = 3
From the text: as §2
(§3) The ability of S. cerevisiae and C. albicans to acidify the media upon glucose addition was evaluated using the pH sensor dextran (40,000MW)-fluorescein-isothiocyanate as described in Kjellerup et al., 2017^6. Briefly, the cells was starved overnight in 50 mM KCl, pH 6.7 at 4 °C. The cell suspension (Final OD600 of 0.19) was mixed with 1.3 µg/ml dextran (40,000MW)-fluorescein-isothiocyanate, 1.5 % DMSO containing inhibitors and the assay initiated with the addition of 2 % D-(+)-glucose. The rate of media acidification was calculated based on the slope of the fluorescent drop in the first 12 minutes after glucose addition.

S. cerevisiae [2] = experiment: Extracellular acidification assay; format: cell-based; details: Saccharomyces cerevisiae, mean ± SEM n = 3
From the text: as §2, §3

T1 sequence (P05030 whole entry, canonical isoform): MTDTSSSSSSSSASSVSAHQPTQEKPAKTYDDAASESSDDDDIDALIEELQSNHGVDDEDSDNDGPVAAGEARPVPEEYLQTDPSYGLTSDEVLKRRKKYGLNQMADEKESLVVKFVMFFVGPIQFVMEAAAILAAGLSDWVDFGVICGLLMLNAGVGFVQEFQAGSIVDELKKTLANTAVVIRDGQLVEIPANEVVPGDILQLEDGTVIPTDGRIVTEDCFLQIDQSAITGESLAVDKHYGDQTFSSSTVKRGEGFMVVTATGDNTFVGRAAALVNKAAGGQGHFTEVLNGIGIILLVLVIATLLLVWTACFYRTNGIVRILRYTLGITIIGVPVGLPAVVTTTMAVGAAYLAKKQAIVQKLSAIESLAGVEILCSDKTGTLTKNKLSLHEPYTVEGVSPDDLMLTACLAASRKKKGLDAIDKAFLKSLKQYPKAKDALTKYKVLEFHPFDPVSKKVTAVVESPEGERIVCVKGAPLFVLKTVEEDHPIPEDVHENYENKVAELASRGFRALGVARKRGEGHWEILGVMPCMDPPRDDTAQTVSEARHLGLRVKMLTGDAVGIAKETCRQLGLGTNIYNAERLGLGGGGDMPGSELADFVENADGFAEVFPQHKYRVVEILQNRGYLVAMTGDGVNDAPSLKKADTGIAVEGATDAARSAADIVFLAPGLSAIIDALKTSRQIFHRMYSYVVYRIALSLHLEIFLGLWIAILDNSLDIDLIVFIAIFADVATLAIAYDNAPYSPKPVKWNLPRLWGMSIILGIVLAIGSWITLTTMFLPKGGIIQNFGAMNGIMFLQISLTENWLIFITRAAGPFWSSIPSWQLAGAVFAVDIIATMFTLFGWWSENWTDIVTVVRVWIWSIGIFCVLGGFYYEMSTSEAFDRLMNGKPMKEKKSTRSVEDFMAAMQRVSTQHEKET

| Structure (SMILES) | IC50 (S. cerevisiae H^+-ATPase) [µM] | MIC (C. albicans (ATCC 90028); ATCC 90028, library hits) [µM] | MIC (S. cerevisiae [1]) [µM] | MIC (C. albicans (ATCC 90028); Candida albicans, ATCC90028, ATCC 90028, library hits) [µM] | iATP (C. albicans cells) [nM] | IC50 (C. albicans) [µM] | IC50 (S. cerevisiae [2]) [µM] |
| --- | --- | --- | --- | --- | --- | --- | --- |
| OC(CN1CCCCCC1)Cn1c2ccccc2c2ccccc21 (stereo not shown) [Compound 1] | 18.8 ± 7.3 | >200 | > 200 |  |  |  |  |
| CC(C)CCOCC(O)Cn1c2ccccc2c2ccccc21 (stereo not shown) [Compound 2] | 5.5 ± 0.7 | >200 | 50 (≈ 15.6 µg/mL) |  |  |  |  |
| Oc1ccccc1Cn1c2ccccc2c2ccccc21 [Compound 3] | 9.7 ± 0.6 | 100 (≈ 27.3 µg/mL) | 50 (≈ 13.7 µg/mL) |  |  |  |  |
| OC(CN1CCCC1)Cn1c2ccc(Cl)cc2c2cc(Cl)ccc21 (stereo not shown) [Compound 4] | 17.3 ± 5.5 | 30 (≈ 10.9 µg/mL) | 10 (≈ 3.63 µg/mL) | ≥ 30 |  |  |  |
| C[C@@H](c1ncncc1F)[C@](O)(Cn1cncn1)c1ccc(F)cc1F [Voriconazole, reference compound] |  |  |  |  | 37 ± 19 | > 75 | > 75 |
